Experiments:
[1] = target: T1, human vascular endothelial growth factor receptor 2 (VEGF-R2) (Homo sapiens, UniProt P35968, DEL940-989/E990V); assay: VEGF-R2 coupled spectrophotometric assay (FLVK); type: biochemical; settings: unphosphorylated VEGF-R2D50 (FLVK)
T1 construct: VEGF-R2D50 contains residues 806-939 and 990-1171; made in house; host or cells: baculovirus/insect cell system
Description: This construct determines the ability of a test compound to inhibit tyrosine kinase activity. A construct (VEGF-R2D50) of the cytosolic domain of human vascular endothelial growth factor receptor 2 (VEGF-R2) lacking the 50 central residues of the 68 residues of the kinase insert domain was expressed in a baculovirus/insect cell system. Of the 1356 residues of full-length VEGF-R2, VEGF-R2D50 contains residues 806-939 and 990-1171, and also one point mutation (E990V) within the kinase insert domain relative to wild-type VEGF-R2. Autophosphorylation of the purified construct was performed by incubation of the enzyme at a concentration of […] in the presence of 3 mM ATP and 40 mM MgCl2 in 100 mM HEPES, pH 7.5, containing 5% glycerol and 5 mM DTT, at 4° C. for 2 h. […] See Parast et al., Biochemistry, 37, 16788-16801 (1998).
The production of ADP from ATP that accompanies phosphoryl transfer was coupled to oxidation of NADH using phosphoenolpyruvate (PEP) and a system having pyruvate kinase (PK) and lactic dehydrogenase (LDH). The oxidation of NADH was monitored by following the decrease of absorbance at 340 nm (e340=6.22 cm^−1 mM^−1) using a Beckman DU 650 spectrophotometer. Assay conditions for phosphorylated VEGF-R2D50 (indicated as FLVK-P in the tables below) were the following: 1 mM PEP; […]; 50 units of LDH/mL; 20 units of PK/mL; 5 mM DTT; 5.1 mM poly(E4Y1); 1 mM ATP; and 25 mM MgCl2 in 200 mM HEPES, pH 7.5. Assay conditions for unphosphorylated VEGF-R2D50 (indicated as FLVK in the tables) were the following: 1 mM PEP; […]; 50 units of LDH/mL; 20 units of PK/mL; 5 mM DTT; 20 mM poly(E4Y1); 3 mM ATP; and 60 mM MgCl2 and 2 mM MnCl2 in 200 mM HEPES, pH 7.5. Assays were initiated with 5 to 40 nM of enzyme. Ki values were determined by measuring enzyme activity in the presence of varying concentrations of test compounds. The percent inhibition at 50 nm (% inhibition @ 50 nm) was determined by linear least-squares regression analysis of absorbance as a function of time. The binding inhibitions were fitted to equation as described by Morrison. The data were analyzed using Enzyme Kinetic and Kaleidagraph software.

[2] = tested on: human umbilical vein endothelial cells (HUVEC); assay: HUVEC+VEGF Proliferation Assay; type: cell-based; settings: VEGF-stimulated proliferation, final VEGF 6 ng/mL, 72 hours, MTT dye reduction
Experimental: This assay determines the ability of a test compound to inhibit the growth factor-stimulated proliferation of human umbilical vein endothelial cells (“HUVEC”). HUVEC cells (passage 3-4, Clonetics, Corp.) were thawed into EGM2 culture medium (Clonetics Corp) in T75 flasks. Fresh EGM2 medium was added to the flasks 24 hours later. Four or five days later, cells were exposed to another culture medium (F12K medium supplemented with 10% fetal bovine serum (FBS), […] endothelial cell growth supplement (ECGS), and 0.1 mg/mL heparin). Exponentially-growing HUVEC cells were used in experiments thereafter. Ten to twelve thousand HUVEC cells were plated in 96-well dishes in […] of rich, culture medium (described above). The cells were allowed to attach for 24 hours in this medium. The medium was then removed by aspiration and […] of starvation media (F12K+1% FBS) was added to each well. After 24 hours, […] of test agent dissolved in 1% DMSO in starvation medium or this vehicle alone was added into each treatment well; the final DMSO concentration was 0.1%. One hour later, […] of VEGF (30 ng/mL) in starvation media was added to all wells except those containing untreated controls; the final VEGF concentration was 6 ng/mL. Cellular proliferation was quantified 72 hours later by MTT dye reduction, at which time cells were exposed for 4 hours MTT (Promega Corp.). Dye reduction was stopped by addition of a stop solution (Promega Corp.) and absorbance at 595 nm was determined on a 96-well spectrophotometer plate reader.

T1 sequence (P35968 with tags, fused parts or gaps DEL940-989/E990V limits assumed): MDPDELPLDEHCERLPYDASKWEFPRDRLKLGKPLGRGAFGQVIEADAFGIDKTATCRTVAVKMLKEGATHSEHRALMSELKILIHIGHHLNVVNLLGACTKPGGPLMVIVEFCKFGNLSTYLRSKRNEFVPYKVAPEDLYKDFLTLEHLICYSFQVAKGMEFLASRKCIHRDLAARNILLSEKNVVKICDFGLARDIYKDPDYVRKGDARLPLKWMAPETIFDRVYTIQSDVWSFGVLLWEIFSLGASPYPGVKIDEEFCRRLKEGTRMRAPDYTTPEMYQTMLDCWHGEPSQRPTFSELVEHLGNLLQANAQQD

Ki [1] [nM]	Compound	IC50 [2] [nM]
< 1	CNC(=O)c1cccc2c(F)c(Oc3ccnc4cc(C(=O)N5CC[C@H](OC)C5)sc34)ccc12 [Example 1, 5-Fluoro-6-[(2-{[(3S)-3-methoxypyrrolidin-1-yl]carbonyl}thieno[3,2-b]pyridin-7-yl)oxy]-N-methyl-1-naphthamide]	< 1
–	CNC(=O)c1cccc2c(F)c(Oc3ccnc4cc(C(=O)N(C)C)sc34)ccc12 [Example 2, 7-({1-Fluoro-5-[(methylamino)carbonyl]-2-naphthyl}oxy)-N,N-dimethylthieno[3,2-b]pyridine-2-carboxamide]	< 1
< 1	CNC(=O)c1cccc2cc(Oc3ccnc4cc(C(=O)N5CC[C@H](OC)C5)sc34)ccc12 [Example 3, 6-[(2-{[(3S)-3-methoxypyrrolidin-1-yl]carbonyl}thieno[3,2-b]pyridin-7-yl)oxy]-N-methyl-1-naphthamide]	< 1
< 1	CNC(=O)c1cccc2cc(Oc3ccnc4cc(C(=O)N(C)C)sc34)ccc12 [Example 4, N,N-Dimethyl-7-({5-[(methylamino)carbonyl]-2-naphthyl}oxy) thieno[3,2-b]pyridine-2-carboxamide]	1 to 10
1 to 10	CNC(=O)c1cccc2cc(Oc3ccnc4cc(C(=O)N5CC[C@@H](N(C)C)C5)sc34)ccc12 [Example 5, 6-[(2-{[(3R)-3-(dimethylamino)pyrrolidin-1-yl]carbonyl}thieno[3,2-b]pyridin-7-yl)oxy]-N-methyl-1-naphthamide]	1 to 10
< 1	CNC(=O)c1cccc2cc(Oc3ccnc4cc(C(=O)N(C)CCN(C)C)sc34)ccc12 [Example 6, N-[2-(Dimethylamino)ethyl]-N-methyl-7-({5-[(methylamino)carbonyl]-2-naphthyl}oxy)thieno[3,2-b]pyridine-2-carboxamide]	> 10
1 to 10	CNC(=O)c1cccc2cc(Oc3ccnc4cc(C(=O)N(C)CCCN(C)C)sc34)ccc12 [Example 7, N-[3-(Dimethylamino)propyl]-N-methyl-7-({5-[(methylamino)carbonyl]-2-naphthyl}oxy)thieno[3,2-b]pyridine-2-carboxamide]	> 10
1 to 10	CNC(=O)c1cccc2cc(Oc3ccnc4cc(C(=O)N(C)CCO)sc34)ccc12 [Example 8, N-(2-Hydroxyethyl)-N-methyl-7-({5-[(methylamino)carbonyl]-2-naphthyl}oxy)thieno[3,2-b]pyridine-2-carboxamide]	> 10
< 1	CN(C)[C@@H]1CCN(C(=O)c2cc3nccc(Oc4ccc5c(C(=O)NC6CC6)cccc5c4)c3s2)C1 [Example 9, N-Cyclopropyl-6-[(2-{[(3R)-3-(dimethylamino)pyrrolidin-1-yl]carbonyl}thieno[3,2-b]pyridin-7-yl)oxy]-1-naphthamide]	–
< 1	CNCC1CCN(C(=O)c2cc3nccc(Oc4ccc5c(C(=O)NC)cccc5c4)c3s2)C1 (stereo not shown) [Example 10, N-Methyl-6-{[2-({3-[(methylamino)methyl]pyrrolidin-1-yl}carbonyl)thieno[3,2-b]pyridin-7-yl]oxy}-1-naphthamide]	–
1 to 10	COCCNC(=O)c1cccc2cc(Oc3ccnc4cc(C(=O)N5CC[C@@H](N(C)C)C5)sc34)ccc12 [Example 11, 6-[(2-{[(3R)-3-(Dimethylamino)pyrrolidin-1-yl]carbonyl}thieno[3,2-b]pyridin-7-yl)oxy]-N-(2-methoxyethyl)-1-naphthamide]	–
< 1	O=C(NCCN1CCOCC1)c1cccc2cc(Oc3ccnc4cc(C(=O)N5CC[C@@H](O)C5)sc34)ccc12 [Example 13, 6-[(2{[(3R)-3-Hydroxypyrrolidin-1-yl]carbonyl}thieno[3,2-b]pyridin-7-yl)oxy]-N-(2-morpholin-4-ylethyl)-1-naphthamide]	1 to 10
< 1	Cn1ccnc1-c1cc2nccc(Oc3ccc4c(C(=O)NCCN5CCOCC5)cccc4c3)c2s1 [Example 14, 6-{[2-(1-Methyl-1H-imidazol-2-yl)thieno[3,2-b]pyridin-7-yl]oxy}-N-(2-morpholin-4-ylethyl)-1-naphthamide]	1 to 10
1 to 10	O=C(NCCN1CCOCC1)c1cccc2cc(Oc3ccnc4ccsc34)ccc12 [Example 15, N-(2-Morpholin-4-ylethyl)-6-(thieno[3,2-b]pyridin-7-yloxy)-1-naphthamide]	> 10
< 1	Cn1ccnc1-c1cc2nccc(Oc3ccc4c(C(=O)NCCCN5CCOCC5)cccc4c3)c2s1 [Example 30, 6-[2-(1-Methyl-1H-imidazol-2-yl)-thieno[3,2-b]pyridin-7-yloxy]-naphthalene-1-carboxylic acid (3-morpholin-4-yl-propyl)-amide]	< 1
< 1	O=C(NCCN1CCOCC1)c1cccc2cc(Oc3ccnc4cc(C(=O)N5CCC5)sc34)ccc12 [Example 31, 6-[2-(Azetidine-1-carbonyl)-thieno[3,2-b]pyridin-7-yloxy]-naphthalene-1-carboxylic acid (2-morpholin-4-yl-ethyl)-amide]	1 to 10
< 1	O=C(NCCCN1CCOCC1)c1cccc2cc(Oc3ccnc4cc(C(=O)N5CCC5)sc34)ccc12 [Example 32, 6-[2-(Azetidine-1-carbonyl)-thieno[3,2-b]pyridin-7-yloxy]-naphthalene-1-carboxylic acid (3-morpholin-4-yl-propyl)-amide]	1 to 10
> 10	O=C(NCCCN1CCCCC1)c1cccc2cc(Oc3ccnc4ccsc34)ccc12 [Example 36, 6-(Thieno[3,2-b]pyridin-7-yloxy)-naphthalene-1-carboxylic acid (3-piperidin-1-yl-propyl)-amide]	–
> 10	O=C(NCCCN1CCCC1)c1cccc2cc(Oc3ccnc4ccsc34)ccc12 [Example 37, 6-(Thieno[3,2-b]pyridin-7-yloxy)-naphthalene-1-carboxylic acid (3-pyrrolidin-1-yl-propyl)-amide]	–
> 10	CN(C)CCNC(=O)c1cccc2cc(Oc3ccnc4ccsc34)ccc12 [Example 41, 6-(Thieno[3,2-b]pyridin-7-yloxy)-naphthalene-1-carboxylic acid (2-dimethylamino-ethyl)-amide]	–
> 10	CNC(=O)c1cccc2cc(Oc3ccnc4cc(O)ccc34)ccc12 [Example 44, 6-(7-Hydroxy-quinolin-4-yloxy)-naphthalene-1-carboxylic Acid Methylamide]	–
–	CCCCNC(=O)c1cccc2cc(Oc3ccnc4cc(OC)ccc34)ccc12 [Example 47, 6-(7-Methoxy-quinolin-4-yloxy)-naphthalene-1-carboxylic Acid Butylamide]	> 10
–	CCCCNC(=O)c1cccc2cc(Oc3ccnc4cc(O)ccc34)ccc12 [Example 48, 6-(7-Hydroxy-quinolin-4-yloxy)-naphthalene-1-carboxylic Acid Butylamide]	1 to 10
> 10	O=C(NCCN1CCOCC1)c1cccc2cc(Oc3ncnc4ccsc34)ccc12 [Example 52, N-(2-Morpholin-4-ylethyl)-6-(thieno[3,2-d]pyrimidin-4-yloxy)-1-naphthamide]	–
